The results in this text go back to PMC9032233, “2-{5-[(Z,2Z)-2-Chloro-3-(4-nitrophenyl)-2-propenylidene]-4-oxo-2-thioxothiazolidin-3-yl}-3-methylbutanoic Acid as a Potential Anti-Breast Cancer Molecule” (International Journal of Molecular Sciences, 2022).

In test [1] the test system is MCF-7 cancer cells. Put plainly: [3H]-thymidine incorporation assay, MCF-7. The test is classed as cell-based. To be noted: Homo sapiens. As to the method:
The antiproliferative properties of the newly synthesized compound were investigated through the [^3H]-thymidine incorporation assay, as described in the literature. Cells culture was exposed to various concentrations of Les-3331 acid and reference drug for 24 h. Thereafter, cells were washed with PBS and 1 mL of fresh medium was added to each well. Then, 0.5 µCi of radioactive [^3H]-thymidine was appended, and the incubation continued for four hours. After the following incubation, the liquid was aspirated and the plate was placed on ice. Cells were washed twice with 1 mL of 0.05 M Tris-HCl buffer comprising 0.11 M NaCl, then twice after that with 1 mL of 5% TCA acid (Stanlab, Lublin, Poland). Finally, the cells were dissolved with 1 mL of 0.1 M NaOH with 1% SDS (Sigma-Aldrich, St. Louis, MO, USA) at room temperature (RT). The resulting cell lysates were transferred into scintillation vials containing 2 mL of scintillation fluid. The radioactivity was determined using Scintillation Counter 1900 TR, TRI-CARB (Packard, Perkin Elmer, Inc., San Jose, CA, USA). The intensity of DNA biosynthesis in cells was expressed in dpm of radioactive thymidine incorporated in the DNA. The radioactivity observed in untreated control cells was taken as 100%. Values from the tested compounds were expressed as a percentage of the control value.
On the technique in general: Incorporation of labelled thymidine or its analogues reports DNA synthesis.

For test [2], the system named is MCF-7 cells. Put plainly: Annexin V binding assay (flow cytometry), MCF-7. Conditions: 24 h. The test is classed as cell-based, human. As to the method:
(§1) The effect of Les-3331 and reference drug on the induction of apoptosis process in human breast cancer cell lines was evaluated using a flow cytometer (BD FACSCanto II, Becton Dickinson Biosciences Systems, San Jose, CA, USA) and Annexin V binding Apoptosis Detection Kit II (BD Biosciences, San Diego, CA, USA). The Les-3331 and reference drug were used in 1 µM and 5 µM concentrations. The test was carried out after 24 h incubation with the tested compounds according to the manufacturer’s protocol and was previously described by our research group. Analysis of the obtained results was performed using FACSDiva software (version 6.1.3, BD Biosciences Systems, San Jose, CA, USA). The equipment was calibrated with BD Cytometer Setup and Tracking Beads (BD Biosciences, San Diego, CA, USA).
(Flow cytometry measures light scatter and fluorescence of single cells or particles in a stream.)

Test [3] concerns MDA-MB-231 cells. Put plainly: Annexin V binding assay (flow cytometry), MDA-MB-231. The test is classed as cell-based, human. To be noted: 24 h. As for the experimental part:
as §1

The subject of test [4] is caspase-9. Put plainly: Caspase-9 concentration in MCF-7 cell lysates (ELISA). The test is classed as cell-based, human. To be noted: 24 h, control 120.913 ng/mL. As to the method:
(§2) High sensitivity assay kits (EIAab Science Co., Ltd., Wuhan, China; Abcam plc., Cambridge, United Kingdom; Cloud-Clone Corp., Katy, TX, USA) were used to determine the concentrations of selected proteins in cell lysates after 24 h incubation with novel compound and reference drug in 1 µM and 5 µM concentrations. In brief, after trypsinization, cells were washed thrice with cold PBS and centrifuged at 1000× g for 5 min at 4 °C. Then, cells (1.5 × 10^6) were suspended in lysis buffer for whole-cell lysates. After the second centrifugation, cellular supernatants were frozen immediately at −70 °C. Untreated cancer cells were taken as a control.
(§3) The microtiter plates provided in the kits were pre-coated with an antibody specific to the analyzed antigen. The tests were carried out according to the manufacturer’s protocols.
A general note: An ELISA detects its analyte on a solid surface through an enzyme-linked reagent.

Test [5] has as its system caspase-8. Nature of the test: Caspase-8 concentration in MCF-7 cell lysates (ELISA). The test is classed as cell-based, human. To be noted: 24 h, control 0.901 ng/mL. As for the experimental part:
as §2, §3

In test [6] the test system is LC3A. Nature of the test: LC3A concentration in MCF-7 cell lysates (ELISA). The test is classed as cell-based, human. Conditions: 24 h, control 6.726 ng/mL. As for the experimental part:
(§4) High sensitivity assay kits (EIAab Science Co., Ltd., Wuhan, China; Abcam plc., Cambridge, United Kingdom; Cloud-Clone Corp., Katy, TX, USA) were used to determine the concentrations of selected proteins in cell lysates […] In brief, after trypsinization, cells were washed thrice with cold PBS and centrifuged at 1000× g for 5 min at 4 °C. Then, cells (1.5 × 10^6) were suspended in lysis buffer for whole-cell lysates. After the second centrifugation, cellular supernatants were frozen immediately at −70 °C. Untreated cancer cells were taken as a control.
as §3

Test [7] relates to LC3A. Nature of the test: LC3A concentration in MDA-MB-231 cell lysates (ELISA). The test is classed as cell-based, human. Conditions: 24 h, control 2.965 ng/mL. As to the method:
as §4, §3

In test [8] the test system is LC3B. Nature of the test: LC3B concentration in MDA-MB-231 cell lysates (ELISA). The test is classed as cell-based, human. To be noted: 24 h, control 1.504 ng/mL. As to the method: as §4, §3
Test [9] has as its system Beclin-1. Put plainly: Beclin-1 concentration in MCF-7 cell lysates (ELISA). The test is classed as cell-based, human. Conditions: 24 h, control 7.965 ng/mL. As to the method:
as §4, §3

Test [10] concerns Beclin-1. Put plainly: Beclin-1 concentration in MDA-MB-231 cell lysates (ELISA). The test is classed as cell-based, human. Conditions: 24 h, control 3.605 ng/mL. As for the experimental part: as §4, §3
Test [11] has as its system topoisomerase II. Nature of the test: Topoisomerase II concentration in MCF-7 cell lysates (ELISA). The test is classed as cell-based, human. To be noted: 24 h, control 2.260 ng/mL. As to the method:
as §2, §3

Test [12] has as its system topoisomerase IIα. Put plainly: Flow cytometric analysis of anti-topoisomerase IIα antibody, MDA-MB-231. The test is classed as cell-based, human. To be noted: 24 h. As for the experimental part:
To confirm the ELISA results, flow cytometric analysis of Top II activity using an anti-topoisomerase IIα antibody conjugated with phycoerythrin (PE) was performed. The Les-3331 and etoposide were used at 1 µM and 5 µM concentrations. Cancer cells were incubated for 24 h with tested compounds and the assay was carried out in accordance with the manufacturer’s protocol. Briefly, cells were centrifuged and resuspended in 4% formaldehyde. Then, cells were incubated at RT for 15 min and subsequently washed with excess PBS and centrifuged. Thereafter, ice-cold 90% methanol was added to the cells and they were incubated for 1 h in an ice bath. Next, cells were washed with excess PBS and centrifuged again. In the meantime, the primary antibody was diluted (1:100) in PBS. Then, cells were resuspended in the prepared primary antibody (100 µL) and incubated at RT, protected from light, for 1 h. Finally, cells were washed and resuspended in PBS (300 µL). The prepared samples were measured immediately. Analysis of the obtained results was performed using a flow cytometer (BD FACSCanto II, Becton Dickinson Biosciences Systems, San Jose, CA, USA) and FACSDiva software (v6.1.3, BD Biosciences Systems, San Jose, CA, USA). The equipment was calibrated with BD Cytometer Setup and Tracking Beads (BD Biosciences, San Diego, CA, USA).

Each structure is given as a SMILES string. Read-outs that look alike come from different tables or passages of the source.

Consider `COc1cc([C@@H]2c3cc4c(cc3[C@@H](O[C@@H]3O[C@@H]5CO[C@@H](C)O[C@H]5[C@H](O)[C@H]3O)[C@H]3COC(=O)[C@H]23)OCO4)cc(OC)c1O` [Etoposide, reference compound], for which the IC50 in test [1] (MCF7, MCF-7, 24 h incubation, read-out: IC50, cell proliferation ([3H]-thymidine incorporation)) was above 20 µM. For the same compound, the “% of late and early apoptotic cells” value in test [2] (MCF-7, 1 µM) was determined as 10.7%; in test [2] (MCF-7, 5 µM), 10.7%; in test [3] (MDA-MB-231, 1 µM), 4.7%; in test [3] (MDA-MB-231, 5 µM), 7.2%. Moreover, the Casp-9 concentration in test [4] (1 µM) was 154.960 ng/mL; in test [4] (5 µM), 158.900 ng/mL. For the same compound, the Casp-8 concentration in [5] (1 µM) is on record as 0.812 ng/mL; in test [5] (5 µM), 0.951 ng/mL. The LC3A concentration is 4.505 ng/mL in test [6] (MCF-7, 1 µM); 4.582 ng/mL in [6] (MCF-7, 5 µM); 2.800 ng/mL in test [7] (MDA-MB-231, 1 µM); 1.313 ng/mL in test [7] (MDA-MB-231, 5 µM). Also, the LC3B concentration in test [8] (MDA-MB-231, 1 µM) stood at 0.784 ng/mL; in test [8] (MDA-MB-231, 5 µM), 0.615 ng/mL. For the same compound, the Beclin-1 concentration in test [9] (1 µM) is reported as 7.848 ng/mL; in test [9] (5 µM), 6.686 ng/mL; in test [10] (MDA-MB-231, 1 µM), 3.442 ng/mL; in test [10] (MDA-MB-231, 5 µM) it was 3.004 ng/mL. Also, the “Top II concentration” value in test [11] (MCF-7, 1 µM) was 1.587 ng/mL; in test [11] (MCF-7, 5 µM), 1.443 ng/mL. The “% of cells without anti-topoisomerase IIα antibody” value in [12] (MDA-MB-231, 1 µM) came out at 7.5%; in [12] (MDA-MB-231, 5 µM), 9.1%.

As to `CC(C)C(C(=O)O)N1C(=O)/C(=C/C(Cl)=C/c2ccc([N+](=O)[O-])cc2)SC1=S` (centres unmarked) [Les-3331, 2-{5-[(Z,2Z)-2-chloro-3-(4-nitrophenyl)-2-propenylidene]-4-oxo-2-thioxothiazolidin-3-yl}-3-methylbutanoic acid], in test [1] (MCF7, read-out: IC50, cell proliferation ([3H]-thymidine incorporation)), the IC50 came out at 5.54 µM. Besides, the “% of late and early apoptotic cells” value in test [2] (MCF-7, 1 µM) is listed as 6.5%; in test [2] (MCF-7, 5 µM), 40.4%; in test [3] (MDA-MB-231, 1 µM), 5.1%; in [3] (MDA-MB-231, 5 µM), 18.1%. For the same compound, the results for the Casp-9 concentration in test [4] (1 µM) and in test [4] (5 µM) were 150.187 ng/mL and 168.243 ng/mL, respectively. The Casp-8 concentration was 1.050 ng/mL in test [5] (1 µM) and 1.253 ng/mL in test [5] (5 µM). Also, the LC3A concentration in [6] (MCF-7, 1 µM) was found to be 4.917 ng/mL; in test [6] (MCF-7, 5 µM), 1.127 ng/mL; in test [7] (MDA-MB-231, 5 µM), 1.258 ng/mL. Besides, the LC3B concentration in [8] (MDA-MB-231, 1 µM) is 1.178 ng/mL; in test [8] (MDA-MB-231, 5 µM), 0.996 ng/mL. Further, the Beclin-1 concentration in test [9] (1 µM) turned out to be 7.435 ng/mL; in test [9] (5 µM), 3.948 ng/mL; in test [10] (MDA-MB-231, 1 µM), 3.007 ng/mL. Moreover, the “Top II concentration” value in [11] (MCF-7, 1 µM) turned out to be 0.900 ng/mL; in test [11] (MCF-7, 5 µM), 0.625 ng/mL. For the same compound, the “% of cells without anti-topoisomerase IIα antibody” value in test [12] (MDA-MB-231, 1 µM) stood at 5.4%; in test [12] (MDA-MB-231, 5 µM), 30.9%.
